Data on ten compounds can be found in patent US20100292472A1, “PROPHYLACTIC AND THERAPEUTIC MEDICINE FOR MALARIA” (priority 2008, published 2010).

Read-outs that look alike come from different tables or passages of the source.

Data set [1] concerns T. gondii strain 2F tachyzoites. Nature of the data set: Test for growth inhibitory activity against T. gondii (β-gal colorimetric proliferation assay in Vero cells). In kind it is cell-based, Toxoplasma gondii. The conditions noted are these: T. gondii 2F tachyzoites in Vero cells, 2 days. The procedure:
To investigate growth inhibitory activity against T. gondii, the following various compounds were tested: inabenfide (Wako Pure Chemicals, Osaka, Japan), paclobutrazol (Wako Pure Chemicals, Osaka, Japan), uniconazole P (Wako Pure Chemicals, Osaka, Japan) and AMO-1618 (CALBIOCHEM, La Jolla, Calif.) as gibberellin inhibitors; thidiazuron (Wako Pure Chemicals, Osaka, Japan) and 6-benzyl aminopurine (Wako Pure Chemicals, Osaka, Japan) as cytokinins; and α-aminooxy acetic acid (Wako Pure Chemicals, Osaka, Japan) as an ethylene inhibitor.
For this test, T. gondii strain 2F tachyzoites were used. The strain 2F was established by transfection of the T. gondii strain RH with a β-galactosidase gene (β-gal, derived from Escherichia coli) [Reference: J. M. Dobrowolski and L. D. Sibley. Toxoplasma invasion of mammalian cells is powered by the actin cytoskeleton of the parasite. Cell 84, 933-939 (1996)]. The 2F strain was kindly provided by Dr. L. David Sibley (Washington University School of Medicine, St. Louis, Mo., US). As a host cell for the parasites, Vero cells were used. Vero cell cultures were incubated with RPMI 1640 medium containing 10% (v/v) FCS in 96-well plates for 2 days and then infected with 2.5×10^5 tachyzoites/well in RPMI 1640 medium containing 3% (v/v) FCS and various concentrations of the compounds. The tachyzoites were harvested after 2 days and the proliferation rate was monitored as a measure of β-gal activity in a colorimetric assay using chlorophenol red β-D-galactopyranoside. The proliferation rate of compound-untreated tachyzoites is set to 100% and the IC50 means the concentration of the compound that inhibits the proliferation rate by 50%.

Data set [2] deals with P. falciparum strain 3D7. Description: Test for growth inhibitory activity against P. falciparum (infected erythrocytes, Giemsa thin blood film). The data set is classed as cell-based, Plasmodium falciparum. Conditions: for EC50: read-out: ED50 (50% growth inhibition concentration, EC50). The procedure: To investigate growth inhibitory activity against a laboratory strain 3D7 of P. falciparum, the following various compounds were tested: inabenfide (Wako Pure Chemicals, Osaka, Japan), uniconazole P (Wako Pure Chemicals, Osaka, Japan), paclobutrazol (Wako Pure Chemicals, Osaka, Japan), AMO-1618 (CALBIOCHEM, La Jolla, Calif.) and FC-907 as gibberellin inhibitors; thidiazuron (Wako Pure Chemicals, Osaka, Japan), 6-benzyl aminopurine (Wako Pure Chemicals, Osaka, Japan), trans-zeatin (Wako Pure Chemicals, Osaka, Japan) and cis-zeatin (Sigma) as cytokinins; and α-aminooxy acetic acid (Wako Pure Chemicals, Osaka, Japan) as an ethylene inhibitor.
As a culture medium for the P. falciparum strain 3D7, filter-sterilized RPMI 1640 (pH 7.4) containing 10% (v/v) human serum and human erythrocytes at 3% hematocrit (the ratio of erythrocytes in a suspension thereof) was prepared. Each compound was dissolved at predetermined concentrations in an appropriate solvent (water, ethanol or DMSO) and added to wells. To each well, 3D7-infected erythrocytes were added at a starting parasitemia of 0.1% and the total volume was adjusted to 2.5 ml with the culture medium. The plates were incubated for 3 days. Control cultures were prepared so that instead of each compound solution, the equal volume of the corresponding solvent alone was contained, and similarly incubated. After the incubation, a thin blood film from each culture was prepared and stained with Giemsa (E. Merck, Germany). A total of 3000-erythrocytes/1 thin blood film were examined microscopically (immersed in oil, magnified to 1000 times), after which the malarial infection rate was determined using the equation below. The culture was maintained at 37° C. in a CO2—O2—N2 incubator (5% CO2, 5% O2, and 90% N2 atmosphere). The experiments were performed at least twice and each treatment was performed in triplicate. By comparison of the malarial infection rates obtained in control and compound-treated samples, the efficacy of each compound was assessed.
Malarial infection rate=[(number of infected erythrocytes)/(total number of examined erythrocytes)]×100
For compounds showing growth inhibitory activity, the 50% growth inhibition concentration (EC50) was calculated using the following equation.
X1: concentration of the compound showing <50% inhibition rate (μM) Y1: inhibition rate at the concentration X1 X2: concentration of the compound showing >50% inhibition rate (μM) Y2: inhibition rate at the concentration X2

The conditions of data set [3]: Reported Data; cited from earlier work.
The conditions of data set [4]: Mice; Reported Data; cited from earlier work.
The mark [5] stands for this setting: P. falciparum 3D7, 3 days incubation, Table 1.
Where [6] appears, read: Plasmodium falciparum, 3D7, Erythrocyte, 72 h.

As a reminder, the IC50 is the concentration needed to halve the response being measured. For orientation: LD50 means the dose at which mortality reaches 50%. `c1ccc(CNc2ncnc3nc[nH]c23)cc1` [6-Benzylaminopurine, 6-benzyl aminopurine]: in data set [1] (read-out: IC50 Toxoplasma), the IC50 was greater than 300 µM. Moreover, in data set [2] (setting [5]), the EC50 was 19 µM. In addition, the Mutagenesis result in data set [3] is “No”. In addition, the LD50 in data set [4] is reported as 1300 mg/kg.

Turning to `Cc1cc(OC(=O)N2CCCCC2)c(C(C)C)cc1[N+](C)(C)C.[Cl-]` [AMO-1618], the IC50 in data set [1] (read-out: IC50 Toxoplasma) was greater than 1000 µM. Further, in data set [2] (setting [5]), the EC50 stood at 10.3 µM. Besides, the “growth inhibition rate (Y1)” value in data set [2] (concentration 10 μM (X1), FIG. 1) is listed as 48.9. For the same compound, the “growth inhibition rate (Y2)” value in data set [2] (concentration 20 μM (X2), FIG. 1) amounted to 85.4. In addition, the LD50 in data set [4] is recorded as 0.36 mg/kg.

Take `CC1=CCCC(C)(C)C1C=CC(C)[N+](C)(C)C` (stereo not drawn) [FC-907, N,N,N-trimethyl-1-methyl-(2′,6′,6′-trimethylcyclohex-2′-en-1′-yl) prop-2-enylammonium iodide]: in data set [2] (setting [5]), the EC50 is 4.26 µM.

Consider `O=C(Nc1ccc(Cl)cc1C(O)c1ccccc1)c1ccncc1` (stereo not drawn) [Inabenfide, inabenfide], for which the IC50 in data set [1] (Toxoplasma gondii, 48 h) amounted to 17 µM. In addition, in data set [2] (setting [6]), the EC50 came out at 4.47 µM. The Mutagenesis result in data set [3] is reported as “No”. Further, the LD50 in data set [4] is greater than 15000 mg/kg.

In turn, `CC(C)(C)[C@@H](O)[C@@H](Cc1ccc(Cl)cc1)n1cncn1` [Paclobutrazol, paclobutrazol] displayed an IC50 in data set [1] (Toxoplasma gondii, 48 h) of 121 µM. The EC50 in data set [2] (setting [6]) amounted to 27.1 µM. In addition, the LD50 in data set [4] was greater than 5000 mg/kg.

In turn, `O=C(Nc1ccccc1)Nc1cnns1` [Thidiazuron, thidiazuron] yielded an IC50 in data set [1] (Toxoplasma gondii, 48 h) of 74.5 µM. For the same compound, the EC50 in data set [2] (setting [6]) is 17.5 µM. Also, the Mutagenesis result in data set [3] is recorded as “No”. In addition, in data set [4], the LD50 is listed as greater than 5000 mg/kg.

For the compound `CC(C)(C)[C@H](O)/C(=C\c1ccc(Cl)cc1)n1cncn1` [Uniconazole P, uniconazole P], the IC50 in data set [1] (read-out: IC50 Toxoplasma) worked out at 97.4 µM. In addition, in data set [2] (setting [5]), the EC50 worked out at 25 µM. In data set [3], the Mutagenesis entry is listed as “No”. In addition, in data set [4], the LD50 is recorded as 1000 mg/kg.

For `C/C(=C/CNc1ncnc2nc[nH]c12)CO` [cis-Zeatin, cis-zeatin], the EC50 in data set [2] (setting [5]) amounted to 742 µM.

Consider `C/C(=C\CNc1ncnc2nc[nH]c12)CO` [trans-Zeatin, trans-zeatin], for which, in data set [2] (setting [5]), the EC50 stood at 651 µM. Moreover, the LD50 in data set [4] is 1300 mg/kg.

In data set [1] (Toxoplasma gondii, 48 h), `NOCC(=O)O` [α-Aminooxy acetic Acid, α-aminooxy acetic acid] showed an IC50 of 96.9 µM. In addition, the EC50 in data set [2] (setting [6]) was found to be 20.3 µM.
